Experimental data as given in patent US20210046109A1, “Suppressive Exosomes in Cancer and for Immunosuppression” (The Regents of the University of California, priority 2018, published 2021).
Peptide text beside a SMILES is read from it. * marks the point of attachment. Cbz = O=C(OCc1ccccc1)*

Tests used:
[1] = system: cancer cells; assay: IFNγ treatment of cancer cells, PD-L1 in cellular and 100 k g fractions and vesicle number; format: cell-based
Source text: In vivo, tumor cells can mediate adaptive resistance by up-regulating PD-L1 in response to interferon-gamma (IFNγ) released by the cytotoxic T lymphocytes within the tumor bed. Therefore, it was explored whether, in addition to up-regulating cellular PD-L1, IFNγ may increase the secretion of PD-L1. Treatment of cancer cells with IFNγ led to an increase in PD-L1 in both the cellular and 100 k g fractions. […] Thus, similar to the cell surface membrane PD-L1, extracellular vesicular PD-L1 increased in response to IFNγ.

[2] = system: PC3 and SK-MEL-28 cells; assay: Lysosome / proteasome inhibition, western analysis of PD-L1 protein levels; format: cell-based; conditions: for PD-L1 protein levels: both lines
Procedure: Next, potential differences in protein degradation were evaluated. The two main pathways for protein degradation are the lysosome and the proteasome. The small molecule Bafalomycin A1 (BafA1) inhibits lysosomal activity by blocking the V-ATPase hydrogen pump and thus acidification of the lysosome. An increase in the protein LC3B, a known target of the lysosome, confirmed effectiveness of the small molecule on PC3 and SK-MEL-28 cells. However, levels of PD-L1 in both lines were unaltered, implying little turnover of PD-L1 by the lysosome in these cells. The small molecule MG132 suppresses proteasome activity by blocking the 26s proteasome complex and consequentially proteolysis. The proteasome recognizes ubiquitin side chains on its targets. An increase in the presence of ubiquitinated proteins confirmed the effectiveness of MG132 on the two cells lines.

Molecule	PD-L1 in both the cellular and 100 k g fractions [1]	number of vesicles secreted [1]	protein LC3B, known target of the lysosome ([2]; PC3 and SK-MEL-28 cells)	PD-L1 protein levels ([2]; PC3 and SK-MEL-28 cells)	presence of ubiquitinated proteins ([2]; PC3 and SK-MEL-28 cells)	PD-L1 levels ([2]; SK-MEL-28 cells only, not PC3)
interferon-gamma [IFNγ, interferon-gamma released by cytotoxic T lymphocytes]	increase	did not increase	–	–	–	–
CO/C1=C\C(C)=C\[C@@H](C)[C@@H](O)[C@@H](C)C/C(C)=C/C=C/[C@H](OC)[C@@H]([C@@H](C)[C@@H](O)[C@H](C)[C@@]2(O)C[C@@H](O)[C@H](C)[C@@H](C(C)C)O2)OC1=O [BafA1, Bafalomycin A1]	–	–	increase	unaltered	–	–
CC(C)C[C@@H](C=O)NC(=O)[C@H](CC(C)C)NC(=O)[C@H](CC(C)C)NC(=O)OCc1ccccc1 [MG132] (Cbz-Leu-Leu-Leu-aldehyde)	–	–	–	minimally affected	increase	slightly up
